We go through 7 compounds from patent publication US20130337579A1, “Methods for Determining Protein Ligand Binding” (UNIVERSITY OF MARYLAND, COLLEGE PARK, priority 2010, published 2013).

The target in test [1] is T1, HisMBP-Alg44PilZ (Pseudomonas aeruginosa, UniProt Q9HY69).
T1 construct: His-MBP-Alg44PilZ was varied from 100 μM to 6 nM; made in house; host or cells: E. coli BL21(DE3)
The test is described as follows: DRaCALA competition of cold nucleotides with 32P-cdiGMP binding to HisMBP-Alg44PilZ. Details: species or system P. aeruginosa. Conditions: 1 mM cold nucleotide (400-fold molar excess over protein), 4 nM 32P-cdiGMP. As for the experimental part: FIG. 2. Detection of specific protein-ligand interactions by DRaCALA. (A) DRaCALA images of interactions between purified proteins (20 μM) incubated with 500 nM ^14C-cAMP, 4 nM ^32P-ATP, or 4 nM ^32P-cdiGMP. Protein-ligand mixtures were spotted on nitrocellulose and allowed to dry prior to imaging using a Fuji FLA7100 phosphorimager. Cognate protein-nucleotide combinations are indicated by arrowheads. MBP was used as a negative control. (B) DRaCALA images of competition assays assessing the ability of 1 mM of the indicated cold nucleotides to compete with binding interactions between 4 nM ^32P-cdiGMP and 2.5 μM HisMBP-Alg44PilZ. (C) Graph of fraction bound for each sample in […] with averages indicated by a horizontal bar. NC indicates no competitor. P values were determined by a Student's t-test for significant differences when compared to the no-competitor (NC) control for three independent experiments. For total intensity of each DRaCALA spot in FIGS. 2A and 2B, see Tables 1 and 2, respectively.
Radiolabeled ligands were incubated with each of the proteins and the mixtures were spotted on nitrocellulose. After spreading by capillary action, membranes were dried and quantitated by phosphorimager. […] Each of the radiolabel signals from MBP mixtures was distributed by capillary action (FIG. 2A). […] The specificity of Alg44PilZ binding to cdiGMP was further tested by competition with excess unlabeled nucleotides (400-fold molar excess relative to the Alg44PilZ protein). Alg44PilZ binding to ^32P-cdiGMP was abolished by cdiGMP, but not by cGMP, GMP, GDP, GTP, ATP, CTP or UTP as was previously described (FIG. 2B). The FB for cdiGMP was 0.31±0.07, which was reversed by competition with unlabeled cdiGMP to the background level of 0.04±0.01 (FIG. 2C).
(§1) Protein or whole cell lysates in 1× cdiGMP binding buffer (20 μl) was mixed with 4 nM of radiolabeled nucleotide and allowed to incubate for 10 minutes at room temperature. Radiolabeled nucleotide was competed away by cold nucleotides in concentrations and for times indicated. Purified proteins were tested in technical replicates. Whole cell lysates in FIG. 4 and FIG. 12 were tested in biological triplicates. Whole cell lysates in FIG. 5 were tested in technical replicates. These mixtures were pipetted (2.5-5 μl) onto dry, untreated nitrocellulose (GE Healthcare) in triplicate and allowed to dry completely before quantification. An FLA7100 Fujifilm Life Science Phosphorimager was used to detect luminescence following a 5-minute exposure of blotted nitrocellulose to phosphorimager film. Data was quantified using Fujifilm Multi Gauge software v3.0.

In test [2] the target is T2, P. aeruginosa Alg44PilZ (His-MBP-Alg44PilZ) (Pseudomonas aeruginosa, UniProt Q9HY69).
T2 construct: His-MBP-Alg44PilZ was varied from 100 μM to 6 nM; made in house; host or cells: E. coli BL21(DE3)
The test is described as follows: biochemical. Type of test: binding. The following applies: 20 μM purified protein; 500 nM 14C-cAMP, 4 nM 32P-ATP or 4 nM 32P-cdiGMP. The source says: DRaCALA exploits the ability of nitrocellulose membranes to preferentially sequester proteins over small molecule ligands. When a mixture of protein and radiolabeled ligand is spotted onto a dry nitrocellulose membrane, protein and bound ligand are immobilized at the site of contact while free ligand is mobilized by capillary action with the liquid phase (FIG. 1A). DRaCALA is a rapid assay, as the capillary action can be completed in less than 5 seconds. […] Because capillary action distributes the unbound ligand throughout the mobile phase, the calculation for the fraction bound (FB) can be corrected for this background (see below for edge effects at the solvent front and annulation of the protein). Therefore, FB is defined by the equation in FIG. 1B, where Iinner is the intensity of signal in the area with protein (inner circle) and Itotal is the total signal of the entire sample (outer circle). The Iinner signal consists of both ligand bound to protein and unbound ligand that has not mobilized beyond the area of the inner circle, which we define as Ibackground. Ibackground can be calculated by subtracting the signal intensity of the Iinner from the total ligand Itotal and adjusting for the relative areas of the inner (Ainner) and outer circles (Atotal) (FIG. 1B).
(§2) Radiolabeled ligands were incubated with each of the proteins and the mixtures were spotted on nitrocellulose. After spreading by capillary action, membranes were dried and quantitated by phosphorimager. […] The specificity of Alg44PilZ binding to cdiGMP was further tested by competition with excess unlabeled nucleotides (400-fold molar excess relative to the Alg44PilZ protein).
Kd can be measured by altering either the protein or ligand concentrations in titration experiments; since DRaCALA detects only the ligand mobility, ligand concentrations can be always held constant. […] Since the assay is completed in less than 5 seconds, DRaCALA can also be used to determine the koff for those protein-ligand complexes with slower off rates. koff was determined for cdiGMP and Alg44PilZ by spotting at the indicated time points after the addition of 1 mM unlabeled cdiGMP to a pre-incubated mixture of Alg44PilZ and ^32P-cdiGMP (FIG. 3C). […] Both edge and annulation effects are explained in FIG. 8. The edge effect is due to evaporation of the solvent during the time of the experiment, and is dependent on the humidity of the local environment around the nitrocellulose support. The evaporation results in a smaller total area (Atotal observed in FIG. 8A) and leads to an increased value in the calculated Ibackground. As a secondary correction for the edge effect, the fraction bound determined for spotted ligand in the absence of protein can be subtracted from all samples in parallel (FIG. 8B).

The target in test [3] is E. coli NtrB (Escherichia coli, UniProt P0AFB5). The test is described as follows: DRaCALA binding of radiolabeled nucleotides to purified NtrB. The following applies: 20 μM purified protein; 500 nM 14C-cAMP, 4 nM 32P-ATP or 4 nM 32P-cdiGMP. As for the experimental part:
as §2, §1

For test [4], the target named is T3, E. coli CRP (Escherichia coli, UniProt P0ACJ8).
T3 construct: His; made in house
The test is described as follows: DRaCALA binding of radiolabeled nucleotides to purified CRP. Conditions: 20 μM purified protein; 500 nM 14C-cAMP, 4 nM 32P-ATP or 4 nM 32P-cdiGMP. Here is the method:
as §2, §1

T1 sequence (Q9HY69 16-116): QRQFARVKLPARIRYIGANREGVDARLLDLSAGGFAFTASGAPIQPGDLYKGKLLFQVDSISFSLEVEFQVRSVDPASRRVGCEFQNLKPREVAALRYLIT
T3 sequence (P0ACJ8 whole entry): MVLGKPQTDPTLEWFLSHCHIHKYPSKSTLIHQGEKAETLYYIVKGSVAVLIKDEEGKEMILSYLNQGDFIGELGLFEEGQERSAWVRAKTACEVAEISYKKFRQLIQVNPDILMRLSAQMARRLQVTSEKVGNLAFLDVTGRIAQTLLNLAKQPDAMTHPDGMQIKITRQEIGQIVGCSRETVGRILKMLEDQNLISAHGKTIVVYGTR
T2 sequence (Q9HY69 16-116): as the sequence (Q9HY69 16-116) above
Chain of E. coli NtrB (P0AFB5 whole entry): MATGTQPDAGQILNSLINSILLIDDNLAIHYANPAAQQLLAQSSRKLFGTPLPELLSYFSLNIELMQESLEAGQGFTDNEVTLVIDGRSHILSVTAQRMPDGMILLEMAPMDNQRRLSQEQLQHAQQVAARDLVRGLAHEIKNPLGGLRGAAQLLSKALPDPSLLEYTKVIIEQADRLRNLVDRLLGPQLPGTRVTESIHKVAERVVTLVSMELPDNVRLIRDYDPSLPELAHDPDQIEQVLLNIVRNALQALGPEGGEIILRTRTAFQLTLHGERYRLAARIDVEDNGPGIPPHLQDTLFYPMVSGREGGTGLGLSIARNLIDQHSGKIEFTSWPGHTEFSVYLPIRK

Turning to `O=c1ccn([C@@H]2O[C@H](COP(=O)(O)OP(=O)(O)OP(=O)(O)O)[C@@H](O)[C@H]2O)c(=O)[nH]1` [UTP], in test [1], the “Alg44PilZ binding to 32P-cdiGMP abolished by unlabeled nucleotide” value (from here on “Alg44PilZ binding”) is reported as “not”.

As to `Nc1ncnc2c1ncn2[C@@H]1O[C@H](COP(=O)(O)OP(=O)(O)OP(=O)(O)O)[C@@H](O)[C@H]1O` [ATP], the “binding to Alg44PilZ (sequestration of radiolabel signal)” value in test [2] is listed as “not”. In addition, the “binding to NtrB (sequestration of radiolabel signal)” value in test [3] is listed as “bound”. Besides, the “Alg44PilZ binding” value in test [1] is listed as “not”. Moreover, the “binding to CRP (sequestration of radiolabel signal)” value in test [4] is on record as “did not bind”.

Consider `Nc1ccn([C@@H]2O[C@H](COP(=O)(O)OP(=O)(O)OP(=O)(O)O)[C@@H](O)[C@H]2O)c(=O)n1` [CTP], for which the “Alg44PilZ binding” value in test [1] is given as “not”.

For the compound `Nc1nc2c(ncn2[C@@H]2O[C@@H]3COP(=O)(O)O[C@H]3[C@H]2O)c(=O)[nH]1` [cGMP], in test [1], the “Alg44PilZ binding” value is reported as “not”.

On to `Nc1nc2c(ncn2[C@@H]2O[C@H](COP(=O)(O)OP(=O)(O)O)[C@@H](O)[C@H]2O)c(=O)[nH]1` [GDP], for which the “Alg44PilZ binding” value in test [1] was “not”.

Take `Nc1nc2c(ncn2[C@@H]2O[C@H](COP(=O)(O)O)[C@@H](O)[C@H]2O)c(=O)[nH]1` [GMP]: in test [1], the “Alg44PilZ binding” value is “not”.

On to `Nc1nc2c(ncn2[C@@H]2O[C@H](COP(=O)(O)OP(=O)(O)OP(=O)(O)O)[C@@H](O)[C@H]2O)c(=O)[nH]1` [GTP], for which the “Alg44PilZ binding” value in test [1] was “not”.
